From patent US20230346831A1, “METHODS FOR TREATING […] USING LOW DOSE CARBON MONOXIDE” (priority 2020, published 2023)
Values joined by “and” are separate entries in the source; they are usually repeats but may differ in a detail not shown here. Identical values can stand only once.

System: MDA-MB-231/TGL cells
Experiment: metabolomic assay (polar metabolite profiling, mass spectrometry)
Format: cell-based, human
Protocol: Cells were seeded in a 10 cm cell culture plate with DMEM containing 10% FBS, 0.2 mM L-glutamine and 1% penicillin/streptomycin. After 16 hours of incubation, metabolites were extracted from the cells using 80% methanol. The remaining steps were carried out with no change according to the methods of Goncalves et al, PNAS, 115:4, E743-E752 (2018). All data analyses were done using MetaboAnalyst.
7 × 10^6 cells were seeded in 10-cm cell culture plates with DMEM containing 10% FBS, 0.2 mM L-glutamine and 1% penicillin/streptomycin. Additionally, MCF7/TGL/pQ was cultured in media containing 0.5 µgml^-1 puromycin and 25 mM HEPES. After 16 hours of incubation, metabolites were extracted from the cells using 80% methanol. The remaining steps were carried out by Weill Cornell Medicine Proteomics and Metabolomics Core Facility according to M. D. Goncalves et al., Proc Natl Acad Sci USA 115, E743-E752 (2018). All data analyses were done using MetaboAnalyst 4.0 (www.metaboanalyst.ca/).
To investigate whether 250 ppm CO mimics hypoxia, the HiF1α protein levels were examined in CO treated MCF7/TGL and MDA-MB-231/TGL cells. […] To determine whether 250 ppm CO affects metabolism, polar metabolites were profiled using two breast cancer cell lines, MCF7/TGL and MDA-MB-231/TGL (FIGS. 7-9).

[1] = MDA-MB-231/TGL cells treated with CO (250 ppm), replicates CO 1-3
[2] = MDA-MB-231/TGL cells, 250 ppm CO, 16 hours

Compound: [C-]#[O+] [CO, Carbon monoxide]
- Peak Height of metabolite intensity: L-Aspartic acid (HMDB00191) [1]: 9,529,167 and 11,274,240 and 16,105,810
- Peak Height of metabolite intensity: L-Carnitine (HMDB00062) [1]: 180,708,600 and 186,528,100 and 206,022,400
- Peak Height of metabolite intensity: L-Cystathionine (HMDB00099) [1]: 371,785 and 449,627 and 589,036
- Peak Height of metabolite intensity: L-Dihydroorotic acid (HMDB03349) [1]: 281,053 and 429,139 and 448,915
- Peak Height of metabolite intensity: L-Glutamic acid (HMDB00148) [1]: 655,681,000 and 727,466,400 and 916,546,500
- Peak Height of metabolite intensity: L-Glutamine (HMDB00641) [1]: 1,601,450,000 and 1,636,785,000 and 1,523,599,000
- Peak Height of metabolite intensity: L-Histidine (HMDB00177) [1]: 120,776,800 and 113,578,300 and 158,867,000
- Peak Height of metabolite intensity: L-Isoleucine (HMDB00172) [1]: 271,615,500 and 275,153,400 and 327,851,400
- Peak Height of metabolite intensity: L-Kynurenine (HMDB00684) [1]: 280,930 and 306,374 and 392,315
- Peak Height of metabolite intensity: L-Lactic acid (HMDB00190) [1]: 289,904,000 and 340,883,500 and 383,011,600
- Peak Height of metabolite intensity: L-Leucine (HMDB00687) [1]: 283,061,200 and 273,188,600 and 323,263,900
- Peak Height of metabolite intensity: L-Lysine (HMDB00182) [1]: 24,306,150 and 24,075,250 and 28,401,380
- Peak Height of metabolite intensity: L-Methionine (HMDB00696) [1]: 84,626,580 and 79,234,880 and 99,088,640
- Peak Height of metabolite intensity: L-Palmitoylcarnitine (HMDB00222) [1]: 73,260 and 167,693 and 194,186
- Peak Height of metabolite intensity: L-Phenylalanine (HMDB00159) [1]: 221,726,300 and 225,785,500 and 288,325,000
- Peak Height of metabolite intensity: L-Proline (HMDB00162) [1]: 612,301,800 and 622,349,000 and 718,183,500
- Peak Height of metabolite intensity: L-Serine (HMDB00187) [1]: 47,600,670 and 48,117,350 and 49,703,860
- Peak Height of metabolite intensity: L-Threonine (HMDB00167) [1]: 137,793,200 and 134,164,900 and 175,180,900
- Peak Height of metabolite intensity: L-Tryptophan (HMDB00929) [1]: 29,250,240 and 30,006,710 and 37,673,960
- Peak Height of metabolite intensity: L-Tyrosine (HMDB00158) [1]: 62,958,740 and 63,148,990 and 80,943,860
- Peak Height of metabolite intensity: L-Valine (HMDB00883) [1]: 112,753,800 and 120,589,500 and 133,489,100
- Peak Height of metabolite intensity: Malic acid (HMDB00744) [1]: 185,995,600 and 208,411,100 and 232,110,400
- Peak Height of metabolite intensity: Mannitol (HMDB00765) [1]: 9,124,205 and 9,515,589 and 10,944,240
- Peak Height of metabolite intensity: Methionine sulfoxide (HMDB02005) [1]: 1,343,863 and 1,483,506 and 1,747,311
- Peak Height of metabolite intensity: Methylimidazoleacetic acid (HMDB02820) [1]: 1,358,938 and 1,418,950 and 1,508,563
- Peak Height of metabolite intensity: Myoinositol (HMDB00211) [1]: 29,719,830 and 34,248,940 and 40,470,300
- Peak Height of metabolite intensity: N6,N6,N6-Trimethyl-L-lysine (HMDB01325) [1]: 1,450,139 and 1,666,314 and 1,913,626
- Peak Height of metabolite intensity: N6-Acetyl-L-lysine (HMDB00206) [1]: 127,774 and 112,788 and 139,608
- Peak Height of metabolite intensity: N-Acetyl-L-alanine (HMDB00766) [1]: 3,499,773 and 3,556,484 and 4,596,263
- Peak Height of metabolite intensity: N-Acetyl-L-aspartic acid (HMDB00812) [1]: 82,644,790 and 91,504,070 and 102,958,000
- Peak Height of metabolite intensity: N-Acetyl-L-methionine (HMDB11745) [1]: 2,318,960 and 1,894,539 and 2,276,345
- Peak Height of metabolite intensity: N-Acetyl-glucosamine 1-phosphate (HMDB01367) [1]: 1,300,461 and 800,586 and 850,336
- Peak Height of metabolite intensity: N-Acetylasparagine (HMDB06028) [1]: 90,904 and 92,805 and 102,592
- Peak Height of metabolite intensity: N-Acetylaspartylglutamic acid (HMDB01067) [1]: 473,464 and 613,919 and 690,837
- Peak Height of metabolite intensity: N-Acetylglutamic acid (HMDB01138) [1]: 7,524,119 and 8,837,337 and 8,010,711
- Peak Height of metabolite intensity: N-Acetylglutamine (HMDB06029) [1]: 1,923,159 and 2,058,882 and 2,006,294
- Peak Height of metabolite intensity: N-Acetylornithine (HMDB03357) [1]: 261,750 and 259,387 and 327,139
- Peak Height of metabolite intensity: N-Acetylputrescine (HMDB02064) [1]: 5,287,508 and 7,257,189 and 5,943,667
- Peak Height of metabolite intensity: N-Formyl-L-methionine (HMDB01015) [1]: 2,242,009 and 2,343,563 and 2,318,203
- Peak Height of metabolite intensity: NAD (HMDB00902) [1]: 17,332,970 and 21,051,080 and 23,992,650
- Peak Height of metabolite intensity: NADH (HMDB01487) [1]: 583,067 and 148,307 and 116,715
- Peak Height of metabolite intensity: NADP (HMDB00217) [1]: 120,286 and 98,434 and 96,478
- Peak Height of metabolite intensity: NADPH (HMDB00221) [1]: 71,492 and 67,909 and 76,928
- Peak Height of metabolite intensity: Niacinamide (HMDB01406) [1]: 1,982,720 and 1,686,510 and 1,871,343
- Peak Height of metabolite intensity: Nicotinamide ribotide (HMDB00229) [1]: 110,026 and 75,372 and 93,843
- Peak Height of metabolite intensity: Ornithine (HMDB00214) [1]: 960,744 and 1,035,848 and 1,261,077
- Peak Height of metabolite intensity: Orotic acid (HMDB00226) [1]: 303,308 and 293,998 and 226,604
- Peak Height of metabolite intensity: Oxidized glutathione (HMDB03337) [1]: 3,793,739 and 4,422,168 and 4,949,576
- Peak Height of metabolite intensity: Oxoglutaric acid (HMDB00208) [1]: 40,551,530 and 45,257,220 and 44,892,300
- Peak Height of metabolite intensity: Pantothenic acid (HMDB00210) [1]: 66,785,200 and 78,653,480 and 81,031,300
- Peak Height of metabolite intensity: Phenylacetylglycine (HMDB00821) [1]: 1,773,254 and 1,725,235 and 1,760,408
- Peak Height of metabolite intensity: Phenyllactic acid (HMDB00779) [1]: 59,693 and 75,824 and 89,853
- Peak Height of metabolite intensity: Phosphoenolpyruvic acid (HMDB00263) [1]: 1,119,695 and 505,583 and 468,849
- Peak Height of metabolite intensity: Phosphorylcholine (HMDB01565) [1]: 926,340,400 and 954,637,100 and 1,004,940,000
- Peak Height of metabolite intensity: Propionylcamitine (HMDB00824) [1]: 42,262,630 and 48,738,950 and 53,591,860
- Peak Height of metabolite intensity: Pyridoxine (HMDB00239) [1]: 9,272,513 and 10,102,820 and 10,351,980
- Peak Height of metabolite intensity: Pyroglutamic acid (HMDB00267) [1]: 95,285,270 and 98,786,160 and 116,343,300
- Peak Height of metabolite intensity: Pyruvic acid (HMDB00243) [1]: 2,402,001 and 2,700,020 and 2,237,894
- Peak Height of metabolite intensity: Riboflavin (HMDB00244) [1]: 84,676 and 97,270 and 112,665
- Peak Height of metabolite intensity: S-Adenosylmethionine (HMDB01185) [1]: 6,948,937 and 8,437,885 and 9,944,495
- Peak Height of metabolite intensity: S-Lactoylglutathione (HMDB01066) [1]: 2,114,224 and 2,485,483 and 1,817,914
- Peak Height of metabolite intensity: Sedoheptulose 1,7-bisphosphate (HMDB60274) [1]: 119,260 and 114,671 and 139,219
- Peak Height of metabolite intensity: Succinic acid (HMDB00254) [1]: 9,808,415 and 11,432,620 and 14,473,460
- Peak Height of metabolite intensity: Taurine (HMDB00251) [1]: 250,114,800 and 184,320,000 and 217,876,200
- Peak Height of metabolite intensity: Taurochenodesoxycholic acid (HMDB00951) [1]: 47,031 and 60,620 and 60,122
- Peak Height of metabolite intensity: Thiamine (HMDB00235) [1]: 24,404,230 and 28,664,720 and 27,656,500
- Peak Height of metabolite intensity: Threonic acid (HMDB00943) [1]: 107,442,800 and 103,948,700 and 114,088,000
- Peak Height of metabolite intensity: Thymidine 5′-triphosphate (HMDB01342) [1]: 177,094 and 147,940 and 156,549
- Peak Height of metabolite intensity: Thymidine (HMDB00273) [1]: 143,606 and 96,280 and 76,717
- Peak Height of metabolite intensity: Thymine (HMDB00262) [1]: 962,069 and 884,966 and 960,234
- Peak Height of metabolite intensity: Ureidosuccinic acid (HMDB00828) [1]: 1,132,717 and 1,612,814 and 1,811,192
- Peak Height of metabolite intensity: Uric acid (HMDB00289) [1]: 2,415,527 and 1,430,740 and 933,580
- Peak Height of metabolite intensity: Uridine 5′-diphosphate (HMDB00295) [1]: 2,964,858 and 3,462,504 and 2,781,952
- Peak Height of metabolite intensity: Uridine 5′-monophosphate (HMDB00288) [1]: 904,984 and 1,359,673 and 975,233
- Peak Height of metabolite intensity: Uridine (HMDB00296) [1]: 1,893,519 and 318,302 and 299,157
- Peak Height of metabolite intensity: Uridine diphosphate glucose (HMDB00286) [1]: 4,959,327 and 5,703,347 and 6,869,287
- Peak Height of metabolite intensity: Uridine diphosphate-N-acetylglucosamine (HMDB00290) [1]: 20,151,160 and 26,809,930 and 32,502,900
- Peak Height of metabolite intensity: Uridine triphosphate (HMDB00285) [1]: 1,308,516 and 1,268,414 and 1,538,242
- Peak Height of metabolite intensity: Urocanic acid (HMDB00301) [1]: 334,329 and 651,672 and 192,858
- Peak Height of metabolite intensity: Xanthine (HMDB00292) [1]: 1,967,615 and 1,894,384 and 2,180,514
- Peak Height of metabolite intensity: Xanthylic acid (HMDB01554) [1]: 36,455 and 11,062 and 9,617
- Peak Height of metabolite intensity: cis-Aconitic acid (HMDB00072) [1]: 20,740,980 and 23,097,840 and 24,649,890
- Peak Height of metabolite intensity: dCTP (HMDB00998) [1]: 7,042
- Peak Height of metabolite intensity: dGDP (HMDB00960) [1]: 10,335,950 and 11,215,290 and 10,659,650
- Peak Height of metabolite intensity: dUMP (HMDB01409) [1]: 484,834 and 490,872 and 603,149
- citric acid and phosphoenolpyruvic acid [2]: did not provide statistically significant results
- nine common metabolites (fumaric acid, L-Dihydroorotic acid, D-2-Hydroxyglutaric, malic acid, NAD, GDP-glucose, pyruvic acid, inosinic acid, oxoglutaric acid) [2]: significantly downregulated
- pyruvic acid, oxoglutaric acid, malic acid, and fumaric acid (TCA intermediates) [2]: significantly downregulated
- abundance of metabolites tested (metabolomics profiling) (MDA-MB-231/TGL cells, 250 ppm carbon monoxide for 16 hours): reduced the abundance of the majority of metabolites tested
